Measurements reported in PMC6540285, “Evaluation of Protein Kinase Inhibitors with PLK4 Cross-Over Potential in a Pre-Clinical Model of Cancer” (International Journal of Molecular Sciences, 2019).

How the values were obtained:
ERBB2 (HER2) = ERBB2 (HER2) (Homo sapiens, UniProt P04626); assay: SelectScreen kinase profiling, ZLYTE; assay type: biochemical
CSNK1A1 (CK1 alpha 1) = CSNK1A1 (CK1 alpha 1) (Homo sapiens, UniProt P48729); assay: SelectScreen kinase profiling, ZLYTE; assay type: biochemical
ROCK2 = ROCK2 (Homo sapiens, UniProt O75116); assay: SelectScreen kinase profiling, ZLYTE; assay type: biochemical; conditions: ROCK2, 10 µM
EPHA1 = EPHA1 (Homo sapiens, UniProt P21709); assay: SelectScreen kinase profiling, ZLYTE; assay type: biochemical; conditions: EPHA1, 10 µM
CDK11 (Inactive) = CDK11 (Inactive) (Homo sapiens, UniProt Q9BWU1); assay: SelectScreen kinase profiling, LanthaScreen binding
CAMKK1 (CAMKKA) = CAMKK1 (CAMKKA) (Homo sapiens, UniProt Q8N5S9); assay: as above
BRAF = BRAF (Homo sapiens, UniProt P15056); assay: as above
FGFR3 V555M = FGFR3 V555M (Homo sapiens, UniProt P22607, V555M); assay: SelectScreen kinase profiling, ZLYTE; assay type: biochemical
FGFR3 V555M, sequence (P22607 23-806 V555M): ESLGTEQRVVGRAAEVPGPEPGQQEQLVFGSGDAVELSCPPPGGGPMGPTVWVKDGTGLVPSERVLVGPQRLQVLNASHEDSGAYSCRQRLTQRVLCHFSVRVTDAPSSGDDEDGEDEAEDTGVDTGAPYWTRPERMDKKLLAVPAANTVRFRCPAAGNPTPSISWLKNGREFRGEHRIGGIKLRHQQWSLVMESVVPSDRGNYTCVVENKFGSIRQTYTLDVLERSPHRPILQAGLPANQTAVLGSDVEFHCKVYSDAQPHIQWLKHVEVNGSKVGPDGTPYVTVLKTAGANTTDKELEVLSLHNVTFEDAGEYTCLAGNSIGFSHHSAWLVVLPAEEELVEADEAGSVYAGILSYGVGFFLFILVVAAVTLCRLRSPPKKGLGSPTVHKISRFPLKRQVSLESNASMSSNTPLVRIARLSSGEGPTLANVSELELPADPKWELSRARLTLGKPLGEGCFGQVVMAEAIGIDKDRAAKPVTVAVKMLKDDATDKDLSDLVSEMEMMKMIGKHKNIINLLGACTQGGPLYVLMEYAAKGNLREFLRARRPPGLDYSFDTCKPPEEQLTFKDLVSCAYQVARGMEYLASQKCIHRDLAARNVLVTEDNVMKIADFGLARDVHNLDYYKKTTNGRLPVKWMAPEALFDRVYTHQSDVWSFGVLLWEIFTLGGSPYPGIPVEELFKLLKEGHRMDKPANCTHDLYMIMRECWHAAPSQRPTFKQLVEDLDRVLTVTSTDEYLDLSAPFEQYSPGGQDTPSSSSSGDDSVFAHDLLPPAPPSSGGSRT

ABL1 G250E = ABL1 G250E (Homo sapiens, UniProt P00519, G250E); assay: SelectScreen kinase profiling, ZLYTE; assay type: biochemical
AMPK (A2/B1/G2) = AMPK (A2/B1/G2) (Homo sapiens, UniProt P54646); assay: SelectScreen kinase profiling, ZLYTE; assay type: biochemical
KIT V560G = KIT V560G (Homo sapiens, UniProt P10721, V560G); assay: SelectScreen kinase profiling, ZLYTE; assay type: biochemical
MAPK1 (ERK2) = MAPK1 (ERK2) (Homo sapiens, UniProt P28482); assay: SelectScreen kinase profiling, ZLYTE; assay type: biochemical
ZAP70 = ZAP70 (Homo sapiens, UniProt P43403); assay: SelectScreen kinase profiling, ZLYTE; assay type: biochemical; conditions: ZAP70, 10 µM
From the text: Kinase Technology % Inhibition Avg Kinase Technology % Inhibition Avg […]
TESK1 LanthaScreen 37 ZAP70 ZLYTE 24
cleavage (Thermo Fisher Scientific, USA)

PRKACA (PKA) = PRKACA (PKA) (Homo sapiens, UniProt P17612); assay: SelectScreen kinase profiling, ZLYTE; assay type: biochemical
AURKC (Aurora C) = AURKC (Aurora C) (Homo sapiens, UniProt Q9UQB9); assay: SelectScreen kinase profiling, ZLYTE; assay type: biochemical
GAK = GAK (Homo sapiens, UniProt O14976); assay: SelectScreen kinase profiling, LanthaScreen binding
GAK, sequence (O14976 whole entry): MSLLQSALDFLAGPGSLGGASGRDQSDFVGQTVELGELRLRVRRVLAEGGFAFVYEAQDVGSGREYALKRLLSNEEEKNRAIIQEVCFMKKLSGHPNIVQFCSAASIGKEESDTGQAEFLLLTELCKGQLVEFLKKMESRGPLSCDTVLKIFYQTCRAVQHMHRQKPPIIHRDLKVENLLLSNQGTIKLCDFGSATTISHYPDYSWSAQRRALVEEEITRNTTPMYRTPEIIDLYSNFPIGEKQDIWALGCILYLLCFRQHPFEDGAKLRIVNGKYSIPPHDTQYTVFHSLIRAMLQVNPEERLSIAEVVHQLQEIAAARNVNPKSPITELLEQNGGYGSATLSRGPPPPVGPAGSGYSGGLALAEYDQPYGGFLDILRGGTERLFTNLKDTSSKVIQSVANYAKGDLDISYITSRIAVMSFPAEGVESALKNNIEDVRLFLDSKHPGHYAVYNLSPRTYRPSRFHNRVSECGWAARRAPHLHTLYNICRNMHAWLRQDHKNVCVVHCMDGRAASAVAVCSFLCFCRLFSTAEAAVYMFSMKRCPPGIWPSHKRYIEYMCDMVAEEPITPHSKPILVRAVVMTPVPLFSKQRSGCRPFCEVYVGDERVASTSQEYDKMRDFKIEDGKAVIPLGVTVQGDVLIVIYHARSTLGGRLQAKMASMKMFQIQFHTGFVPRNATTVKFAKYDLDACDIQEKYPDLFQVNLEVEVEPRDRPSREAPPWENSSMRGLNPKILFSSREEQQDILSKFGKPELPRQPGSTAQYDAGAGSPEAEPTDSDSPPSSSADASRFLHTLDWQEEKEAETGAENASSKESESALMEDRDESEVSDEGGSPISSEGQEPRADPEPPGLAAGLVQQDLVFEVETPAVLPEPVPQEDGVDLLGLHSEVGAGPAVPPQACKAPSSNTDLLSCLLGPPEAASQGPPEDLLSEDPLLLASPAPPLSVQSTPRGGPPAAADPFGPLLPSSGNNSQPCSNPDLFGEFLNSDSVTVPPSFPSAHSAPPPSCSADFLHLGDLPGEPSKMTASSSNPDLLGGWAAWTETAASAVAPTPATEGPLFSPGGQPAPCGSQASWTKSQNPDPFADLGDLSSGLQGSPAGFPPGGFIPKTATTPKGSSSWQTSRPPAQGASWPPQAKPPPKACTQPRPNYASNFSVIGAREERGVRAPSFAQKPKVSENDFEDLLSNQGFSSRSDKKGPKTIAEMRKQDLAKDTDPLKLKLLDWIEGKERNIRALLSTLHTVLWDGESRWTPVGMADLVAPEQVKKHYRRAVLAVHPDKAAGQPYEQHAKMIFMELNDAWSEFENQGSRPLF

FGFR2 = FGFR2 (Homo sapiens, UniProt P21802); assay: SelectScreen kinase profiling, ZLYTE; assay type: biochemical; conditions: FGFR2, 10 µM
IGF1R = IGF1R (Homo sapiens, UniProt P08069); assay: SelectScreen kinase profiling, ZLYTE; assay type: biochemical
AMPK (A1/B1/G2) = AMPK (A1/B1/G2) (Homo sapiens, UniProt Q13131); assay: SelectScreen kinase profiling, LanthaScreen binding
PRKCZ (PKC zeta) = PRKCZ (PKC zeta) (Homo sapiens, UniProt Q05513); assay: SelectScreen kinase profiling, ZLYTE; assay type: biochemical
FER = FER (Homo sapiens, UniProt P16591); assay: SelectScreen kinase profiling, ZLYTE; assay type: biochemical
RT and MB cells = assay: Beta-galactosidase senescence assay; assay type: cell-based; conditions: all cell lines
Description: Senescence was evaluated using the Beta-galactosidase assay (Senescence Cells Histochemical Staining Kit CS0030 (Sigma, St Louis, MO, USA) and clonogenic recovery assay as previously described.

PASK = PASK (Homo sapiens, UniProt Q96RG2); assay: SelectScreen kinase profiling, ZLYTE; assay type: biochemical
EPHB2 = EPHB2 (Homo sapiens, UniProt P29323); assay: SelectScreen kinase profiling, ZLYTE; assay type: biochemical; conditions: EPHB2, 10 µM
MUSK = MUSK (Homo sapiens, UniProt O15146); assay: SelectScreen kinase profiling, ZLYTE; assay type: biochemical
ALK F1174L = ALK F1174L (Homo sapiens, UniProt Q9UM73, F1174L); assay: SelectScreen kinase profiling, LanthaScreen binding
LCK = LCK (Homo sapiens, UniProt P06239); assay: SelectScreen kinase profiling, ZLYTE; assay type: biochemical
BRAF V599E = BRAF V599E (Homo sapiens, UniProt P15056, V600E); assay: SelectScreen kinase profiling, LanthaScreen binding
BRAF V599E, sequence (P15056 416-766 V600E limits assumed): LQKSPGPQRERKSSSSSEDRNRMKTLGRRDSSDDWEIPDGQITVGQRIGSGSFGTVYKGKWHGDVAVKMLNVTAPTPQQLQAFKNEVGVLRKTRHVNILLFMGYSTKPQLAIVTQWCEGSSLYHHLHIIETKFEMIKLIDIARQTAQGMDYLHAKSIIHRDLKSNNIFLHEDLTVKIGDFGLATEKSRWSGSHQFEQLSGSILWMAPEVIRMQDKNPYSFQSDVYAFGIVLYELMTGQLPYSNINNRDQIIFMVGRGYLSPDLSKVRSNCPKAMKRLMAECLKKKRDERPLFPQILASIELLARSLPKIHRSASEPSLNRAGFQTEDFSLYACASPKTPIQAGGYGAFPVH

SGK2 = SGK2 (Homo sapiens, UniProt Q9HBY8); assay: SelectScreen kinase profiling, ZLYTE; assay type: biochemical; conditions: SGK2, 10 µM
SGK2, sequence (Q9HBY8 whole entry): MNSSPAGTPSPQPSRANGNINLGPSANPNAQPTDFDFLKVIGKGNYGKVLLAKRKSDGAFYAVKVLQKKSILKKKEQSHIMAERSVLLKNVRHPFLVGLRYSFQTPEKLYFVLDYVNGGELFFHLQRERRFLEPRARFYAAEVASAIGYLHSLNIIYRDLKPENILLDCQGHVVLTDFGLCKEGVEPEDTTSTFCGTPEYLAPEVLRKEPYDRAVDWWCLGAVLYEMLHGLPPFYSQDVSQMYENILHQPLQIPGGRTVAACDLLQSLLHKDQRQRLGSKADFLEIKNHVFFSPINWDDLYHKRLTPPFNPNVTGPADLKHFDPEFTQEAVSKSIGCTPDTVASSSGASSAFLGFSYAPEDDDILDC

EPHA6 = EPHA6 (Homo sapiens, UniProt Q9UF33); assay: SelectScreen kinase profiling, LanthaScreen binding; conditions: EPHA6, 10 µM
CDK3/cyclin E1 = CDK3/cyclin E1 (Homo sapiens, UniProt Q00526); assay: as above; conditions: CDK3/cyclin E1, 10 µM
[1] = molecular target: CSNK1E (CK1 epsilon) R178C (Homo sapiens, UniProt P49674, R178C); assay: SelectScreen kinase profiling, ZLYTE; assay type: biochemical
CSNK1E (CK1 epsilon) R178C, sequence (P49674 whole entry R178C): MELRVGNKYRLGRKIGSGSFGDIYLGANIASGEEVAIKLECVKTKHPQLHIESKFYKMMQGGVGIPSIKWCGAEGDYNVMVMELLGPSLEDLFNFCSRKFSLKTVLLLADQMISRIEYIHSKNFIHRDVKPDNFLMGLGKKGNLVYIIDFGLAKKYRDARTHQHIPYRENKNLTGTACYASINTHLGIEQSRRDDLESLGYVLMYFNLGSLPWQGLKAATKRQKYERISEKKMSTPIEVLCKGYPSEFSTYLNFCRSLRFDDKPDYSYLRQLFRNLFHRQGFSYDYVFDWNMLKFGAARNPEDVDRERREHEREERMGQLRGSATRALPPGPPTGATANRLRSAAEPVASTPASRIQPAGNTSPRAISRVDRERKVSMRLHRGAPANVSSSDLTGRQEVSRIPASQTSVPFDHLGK

PRKCB1 (PKC beta I) = PRKCB1 (PKC beta I) (Homo sapiens, UniProt P05771); assay: SelectScreen kinase profiling, ZLYTE; assay type: biochemical
CDC42 BPB (MRCKB) = CDC42 BPB (MRCKB) (Homo sapiens, UniProt Q9Y5S2); assay: SelectScreen kinase profiling, ZLYTE; assay type: biochemical
MAPK8 (JNK1) = MAPK8 (JNK1) (Homo sapiens, UniProt P45983); assay: SelectScreen kinase profiling, LanthaScreen binding
MAPK8 (JNK1), sequence (P45983 whole entry): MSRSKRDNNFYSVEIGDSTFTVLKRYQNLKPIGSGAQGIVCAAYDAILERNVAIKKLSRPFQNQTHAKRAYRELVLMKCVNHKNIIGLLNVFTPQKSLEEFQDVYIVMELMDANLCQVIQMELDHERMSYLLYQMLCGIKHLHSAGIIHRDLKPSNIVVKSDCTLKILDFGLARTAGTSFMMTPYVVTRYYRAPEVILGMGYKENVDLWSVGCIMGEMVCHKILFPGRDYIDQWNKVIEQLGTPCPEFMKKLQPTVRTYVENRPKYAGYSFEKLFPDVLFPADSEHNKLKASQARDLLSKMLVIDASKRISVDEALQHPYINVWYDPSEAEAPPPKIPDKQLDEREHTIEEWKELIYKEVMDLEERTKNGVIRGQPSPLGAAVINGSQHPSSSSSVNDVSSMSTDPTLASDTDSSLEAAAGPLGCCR

EIF2AK2 (PKR) = EIF2AK2 (PKR) (Homo sapiens, UniProt P19525); assay: as above
MET (cMet) = MET (cMet) (Homo sapiens, UniProt P08581); assay: SelectScreen kinase profiling, ZLYTE; assay type: biochemical
MET (cMet), sequence (P08581 25-1390): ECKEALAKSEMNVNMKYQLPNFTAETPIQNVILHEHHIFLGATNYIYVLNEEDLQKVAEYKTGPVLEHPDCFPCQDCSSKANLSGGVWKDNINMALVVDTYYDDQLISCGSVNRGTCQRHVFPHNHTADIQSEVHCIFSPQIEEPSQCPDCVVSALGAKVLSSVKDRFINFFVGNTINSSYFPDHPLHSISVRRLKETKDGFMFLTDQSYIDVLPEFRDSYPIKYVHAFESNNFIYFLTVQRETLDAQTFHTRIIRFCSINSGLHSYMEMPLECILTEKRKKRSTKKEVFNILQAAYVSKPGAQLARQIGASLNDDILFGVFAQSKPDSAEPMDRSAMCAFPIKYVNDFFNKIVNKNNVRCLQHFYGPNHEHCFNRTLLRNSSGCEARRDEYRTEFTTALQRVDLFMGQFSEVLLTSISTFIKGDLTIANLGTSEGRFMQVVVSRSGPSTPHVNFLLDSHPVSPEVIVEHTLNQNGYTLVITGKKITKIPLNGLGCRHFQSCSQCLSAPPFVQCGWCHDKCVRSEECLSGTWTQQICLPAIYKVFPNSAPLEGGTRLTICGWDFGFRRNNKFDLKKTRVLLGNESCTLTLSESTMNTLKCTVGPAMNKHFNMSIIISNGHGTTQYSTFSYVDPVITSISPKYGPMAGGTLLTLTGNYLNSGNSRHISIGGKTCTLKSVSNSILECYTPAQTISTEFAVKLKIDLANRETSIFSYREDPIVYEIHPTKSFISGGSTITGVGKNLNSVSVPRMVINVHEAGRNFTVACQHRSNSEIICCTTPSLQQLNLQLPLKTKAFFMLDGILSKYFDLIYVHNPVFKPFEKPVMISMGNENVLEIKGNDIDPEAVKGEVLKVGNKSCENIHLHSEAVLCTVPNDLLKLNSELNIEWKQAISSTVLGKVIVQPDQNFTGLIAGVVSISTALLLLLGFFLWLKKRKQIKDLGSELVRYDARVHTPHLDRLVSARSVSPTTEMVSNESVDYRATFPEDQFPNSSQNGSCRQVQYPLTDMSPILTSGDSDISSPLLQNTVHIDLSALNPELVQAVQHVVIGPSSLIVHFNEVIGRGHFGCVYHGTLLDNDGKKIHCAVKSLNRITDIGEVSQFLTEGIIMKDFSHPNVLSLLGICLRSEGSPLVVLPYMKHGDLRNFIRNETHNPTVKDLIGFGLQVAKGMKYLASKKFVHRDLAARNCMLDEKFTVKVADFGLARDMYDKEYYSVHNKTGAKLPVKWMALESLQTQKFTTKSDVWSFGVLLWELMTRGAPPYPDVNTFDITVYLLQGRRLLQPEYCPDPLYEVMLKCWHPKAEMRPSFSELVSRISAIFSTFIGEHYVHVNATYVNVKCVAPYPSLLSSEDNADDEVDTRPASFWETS

CDC42 BPG (MRCKG) = CDC42 BPG (MRCKG) (Homo sapiens, UniProt Q6DT37); assay: SelectScreen kinase profiling, ZLYTE; assay type: biochemical
IRAK3 = IRAK3 (Homo sapiens, UniProt Q9Y616); assay: SelectScreen kinase profiling, LanthaScreen binding; conditions: IRAK3, 10 µM

O=C(c1ccc(/C=C/c2n[nH]c3ccccc23)cc1)N1CCNCC1 [KW-2449]
inhibition at 10 µM (ERBB2 (HER2)): 4% | inhibition at 10 µM (CSNK1A1 (CK1 alpha 1)): 33% | inhibition at 10 µM (ROCK2): 83% | inhibition at 10 µM (EPHA1): 99% | inhibition at 10 µM (CDK11 (Inactive)): 29% | inhibition at 10 µM (CAMKK1 (CAMKKA)): 69% | inhibition at 10 µM (BRAF): -1% | inhibition at 10 µM (FGFR3 V555M): 100% | inhibition at 10 µM (ABL1 G250E): 100% | inhibition at 10 µM (AMPK (A2/B1/G2)): 97% | inhibition at 10 µM (KIT V560G): 84% | inhibition at 10 µM (MAPK1 (ERK2)): 45% | inhibition at 10 µM (ZAP70): 24% | inhibition at 10 µM (PRKACA (PKA)): 76% | inhibition at 10 µM (AURKC (Aurora C)): 98% | inhibition at 10 µM (GAK): 67% | inhibition at 10 µM (FGFR2): 97% | inhibition at 10 µM (IGF1R): 95% | inhibition at 10 µM (AMPK (A1/B1/G2)): 85% | inhibition at 10 µM (PRKCZ (PKC zeta)): 9% | inhibition at 10 µM (FER): 98% | cell senescence (beta-galactosidase) (RT and MB cells): dose-dependent induction of cell senescence | inhibition at 10 µM (PASK): 10% | inhibition at 10 µM (EPHB2): 95% | inhibition at 10 µM (MUSK): 90% | inhibition at 10 µM (ALK F1174L): 56% | inhibition at 10 µM (LCK): 97% | inhibition at 10 µM (BRAF V599E): 6% | inhibition at 10 µM (SGK2): 95% | inhibition at 10 µM (EPHA6): 73% | inhibition at 10 µM (CDK3/cyclin E1): 48% | inhibition at 10 µM [1]: 71% | inhibition at 10 µM (PRKCB1 (PKC beta I)): 19% | inhibition at 10 µM (CDC42 BPB (MRCKB)): 27% | inhibition at 10 µM (MAPK8 (JNK1)): 81% | inhibition at 10 µM (EIF2AK2 (PKR)): 7% | inhibition at 10 µM (MET (cMet)): 95% | inhibition at 10 µM (CDC42 BPG (MRCKG)): 68% | inhibition at 10 µM (IRAK3): 31%
